# Test results from patent US12030908B2, “Antimicrobial compounds, compositions, and uses thereof” (Lakewood Amedex, Inc., priority 2017, dated 2024).
# Legend:
# [1] = system: wild type P. aeruginosa (PAO1; K2732); assay: Bacterial cytological profiling at pH 4, 5.5, 7 (Example 7), P. aeruginosa; format: cell-based; settings: pH 7, 225 mg/mL
# Description: This bacterial cytological profiling (BCP) investigation uses methods and materials described previously by Nonejuie, P., Burkart, M., Poglianoa, K., Pogiano, J. (2013). Bacterial cytological profiling rapidly identifies the cellular pathways targeted by antibacterial molecules. Proc. Natl. Acad. Sci. U.S.A. 110(40):16169-16174. doi: 10.1073/pnas.1311066110.
# For viable cell counts, cells are grown to OD600≈0.4 and diluted 1:1 into buffered or unbuffered media containing various compound concentrations. Samples are then collected and serially diluted (1:10) on a 96 well plate. Five microliters from each well are spotted on LB plates, incubated at 30° C., and viable cells are counted the next day.
# Samples are collected at 10, 30, 120, and 240 min of exposure for viable cell count and imaging. For imaging, E. coli and S. aureus 200 μL of treated cells per time point are stained with 0.8 μg/mL FM4-64, 1.5 μg/mL DAPI, and 0.4 μM SYTOXGreen (Molecular Probes/Invitrogen). P. aeruginosa samples are stained 0.4 μM SYTOX Green, 28 μg/mL DAPI, and 1 μg/mL FM 4-64. Cells are transferred to an agarose pad (20% LB, 1% agarose) for imaging.
# For Nu-3 and Nu-8 stocks (at pH 4, 5.5 and 7), stock concentration is 500 mg/mL. For pH 4, the stocks are prepared by dissolving Nu-3 in 25 mM citrate buffer and Nu-8 in 350 mM citric acid. […]
# [2] = system: Helicobacter pylori SS1 (CagA+, VacA+); assay: Helicobacter pylori stomach infection model in mice, oral treatment; format: in vivo, C57/BL6 mice
# Source text: The mouse strain used in this study is C57/BL6 ranging from 5-6 weeks in age and 18-22 grams in weight. Mice are housed five to a cage with free access to food and water in accordance with NIH guidelines.
# A bacterial strain of Helicobacter pylori SS1 (CagA+, VacA+) is adapted for the mouse model from a human clinical isolate and validated in this infection model.
# At 6 days prior to infection, a frozen stock is streaked onto one to two Columbia 5% sheep blood agar plates, and the plates are microaerophilically incubated for 72 hours at 37° C. After 72 hours, the plate growth is subcultured onto five Columbia 5% sheep blood agar plates and is incubated as before. After another 72 hours of incubation, the plates are removed, and the plate growth is suspended in sterile 0.9% saline to an OD of 1.5-2.0 at 530 nm. This OD is approximately equal to 1.0e+09 CFU/mL, which is used to orally infect the mice on all 3 infection days. To infect mice, the mice are orally dosed 0.25 mL of the 1.0e+09 CFU/mL via a 20-22 G gavage needle. Mice need to be fasted only before the first infection.
# At 1 week post-infection, mice are treated with Nu-8. Multiple dose antibiotic therapies are administered orally at 0.2 mL/dose. Antibiotics are administered 2 times per day and continued for 7 days. The control group is administered the vehicle alone.
# Food is removed from cages 18 hours prior to euthanizing animals and each cage is clearly labeled that the animals are being experimentally fasted. Mice are euthanized (CO2 & cervical dislocation). […] The excised stomach is placed into a sterile petri dish and the luminal contents are rinsed away with sterile 1×PBS. Each rinsed stomach is placed into a 14-mL Falcon tube containing 2 mL of 1×PBS and stored on ice. Each stomach is homogenized, 10-fold serial diluted in 1×PBS, spot plated onto Columbia agar with 3.5% laked horse blood±the DENT selective antibiotic supplement, and microaerophilically incubated for 5 days at 37° C. Then, colonies are counted.
# Nu-8 is administered at various doses (mg/kg), orally, twice-a-day for 7 days. The formulations, concentration and dose volumes for treatment is established prior to dosing. The positive control group consists of a triple therapy regimen (omeprazole, amoxicillin, and clarithromycin). Negative control used dosing solution without drugs.
# [3] = Body weight in the Aspergillus fumigatus lung infection model (Example 24); format: in vivo, BALB/c mice; settings: Part A
# E. coli = assay: MIC in lysogeny broth (LB) at pH 4; format: cell-based
# Description: (§1) The MICs are also determined using lysogeny broth (LB) at pH 4 as the growth medium. Under these conditions, Nu-8 is active against E. coli and P. aeruginosa with MICs of 54 and 27 mg/mL, respectively.
# P. aeruginosa = assay: MIC in lysogeny broth (LB) at pH 4; format: cell-based
# Description: as §1
# bacterial strains = assay: MIC at pH 3.5 in human and mouse urine; format: cell-based
smiles,measurement,setting,value
"CCCCOP(=O)(O)OC[C@H]1O[C@@H](n2ccc(N)nc2=O)C[C@@H]1OP(=O)(O)OCCCC [Nu-8, sodium ((2R,3S,5R)-5-(4-amino-2-oxopyrimidin-1(2H)-yl)-3-((butoxyoxidophosphor-yl)oxy)tetrahydrofuran-2-yl)methyl butyl phosphate]",cell growth,[1],slightly lower than that at pH 7 alone
same,cell permeability,"[1]; 10 min, not persistent",~37%
same,mean bacterial stomach titers of H. pylori SS1 (Log10),"[2]; 0.2 mg (1 mg/mL, 0.2 mL) PO bid for 7 days, +7 Days",5.62 log10 CFU
same,mean bacterial stomach titers of H. pylori SS1 (Log10),"[2]; 0.2 mg (1 mg/mL, 0.2 mL) PO bid for 7 days, +14 Days",6.2 log10 CFU
same,mean bacterial stomach titers of H. pylori SS1 (Log10),"[2]; 1.0 mg (5 mg/mL, 0.2 mL) PO bid for 7 days, +7 Days",5.21 log10 CFU
same,mean bacterial stomach titers of H. pylori SS1 (Log10),"[2]; 1.0 mg (5 mg/mL, 0.2 mL) PO bid for 7 days, +14 Days",5.67 log10 CFU
same,mean bacterial stomach titers of H. pylori SS1 (Log10),"[2]; 2 mg (10 mg/mL, 0.2 mL) PO bid for 7 days, +7 Days",4.74 log10 CFU
same,mean bacterial stomach titers of H. pylori SS1 (Log10),"[2]; 2 mg (10 mg/mL, 0.2 mL) PO bid for 7 days, +14 Days",5.81 log10 CFU
same,Body Weight (g) Mean ± SD,"[3]; 3 doses, once daily for 3 days, Day 0",25.17 ± 0.75 g
same,Body Weight (g) Mean ± SD,"[3]; 3 doses, once daily for 3 days, Day 1",24.50 ± 0.55 g
same,Body Weight (g) Mean ± SD,"[3]; 3 doses, once daily for 3 days, Day 2",23.17 ± 0.75 g
same,Body Weight (g) Mean ± SD,"[3]; 3 doses, once daily for 3 days, Day 3 (n = 3)",22.33 ± 0.58 g
same,Body Weight (g) Mean ± SD,"[3]; 5 doses, once daily for 5 days, Day 0",25.33 ± 0.82 g
same,Body Weight (g) Mean ± SD,"[3]; 5 doses, once daily for 5 days, Day 1",24.33 ± 0.52 g
same,Body Weight (g) Mean ± SD,"[3]; 5 doses, once daily for 5 days, Day 2",23.33 ± 0.52 g
same,Body Weight (g) Mean ± SD,"[3]; 5 doses, once daily for 5 days, Day 3 (n = 3)",22.67 ± 0.58 g
same,Body Weight (g) Mean,"[3]; 5 doses, once daily for 5 days, Day 4 (n = 2)",22.50 g
same,Body Weight (g) Mean,"[3]; 5 doses, once daily for 5 days, Day 5 (n = 2)",22.00 g
same,Body Weight (g) Mean ± SD,"[3]; single dose group, Day 0",25.50 ± 0.55 g
same,Body Weight (g) Mean ± SD,"[3]; single dose group, Day 1",24.17 ± 0.41 g
same,change in mean body weights,[3]; vehicle and treatment groups,Decreases in mean body weights were observed
same,MIC,E. coli,54 mg/mL
same,MIC,P. aeruginosa,27 mg/mL
same,MICs in human and mouse urine,bacterial strains,comparable to those of Nu-8 in Mueller Hinton broth
